Reference: EPA's ToxValDB 9.5 (doi:10.2903/j.efsa.2016.4569)
Values after ≈ are worked out from the molar mass of the structure shown.

How the values were obtained:
Oncorhynchus mykiss = settings: acute; duration: 96 hours; mortality
Tagia sp. = settings: for NOEC: chronic/long-term, reproduction; for LC50: acute, mortality
Rattus norvegicus = settings: for LD50: acute, mortality
Aphidius rhopalosiphi = test: LR50; higher = less toxic; settings: not reported; mortality
Folsomia candida = settings: chronic/long-term; reproduction
Daphnia magna = settings: chronic/long-term; duration: 21 days; reproduction
Oryctolagus sp. = settings: chronic; other
Lepomis macrochirus = settings: chronic/long-term; other
Apis mellifera = settings: acute, mortality
[1] = short-term, duration: 28 days, M

Row | SMILES | LC50 (Oncorhynchus mykiss) [µg/mL] | NOEC (Tagia sp.) [mg/kg] | NOAEL (Rattus norvegicus; [1]) [mg/kg-day] | LC50 (Tagia sp.) [mg/kg] | also measured
1 | O=C(O)c1cc(-n2nc(CO)n(C(F)F)c2=O)c(F)cc1Cl | > 100 | 0.056 | 10.1 | – | –
2 | Cc1nn(-c2cc(C(=O)O)c(Cl)cc2F)c(=O)n1C(F)F | > 92.5 | – | 5.4 | > 1000 | –
3 | Cc1nn(-c2cc(C=CC(=O)O)c(Cl)cc2F)c(=O)n1C(F)F | – | – | 1 | > 500 | –
4 | Cc1nn(-c2cc(CCC(=O)O)c(Cl)cc2F)c(=O)n1C(F)F | – | – | – | > 1000 | NOAEL (Rattus norvegicus; short-term, M): 1.4 mg/kg-day
5 | COc1cc(-n2nc(C)n(C(F)F)c2=O)c(F)cc1Cl | > 20.9 | 0.256 | 8.5 | – | –
6 | Cc1n[nH]c(=O)n1C(F)F | > 100 | – | – | > 100 | NOAEL (Rattus norvegicus; subchronic, duration: 90 days, M): 0.666 mg/kg-day
7 | O=C(O)c1cc(-n2ncn(C(F)F)c2=O)c(F)cc1Cl [3-Desmethyl-F8426-benzoic acid] | – | – | 5.4 | – | –
8 | O=C(O)CCc1cc(-n2ncn(C(F)F)c2=O)c(F)cc1Cl [3-Desmethyl-F8426-propionic acid] | – | – | – | – | NOAEL (Rattus norvegicus; short-term, M): 1.4 mg/kg-day
9 | O=C(O)CCc1cc(-n2nc(CO)n(C(F)F)c2=O)c(F)cc1Cl [3-Hydroxymethyl-F8426-propionic acid] | – | – | 1.4 | – | –
10 | CCOC(=O)C(Cl)Cc1cc(-n2nc(C)n(C(F)F)c2=O)c(F)cc1Cl (configuration not stated) [Carfentrazone-ethyl] | 1.6 (≈ 3.88 µM) | 8 | – | > 410 | LR50 (Aphidius rhopalosiphi): 23.5 g/ha; LD50 (Colinus virginianus; acute, oral, mortality): > 2250 mg/kg-day; NOEC (Colinus virginianus; chronic): 94 mg/kg-day; NOEC (Folsomia candida): 0.975 mg/kg; NOEC (Daphnia magna): 0.22 mg/L; NOAEL (Oryctolagus sp.): 40 mg/kg-day; NOEC (Lepomis macrochirus): 0.0187 mg/L; LD50 (Apis mellifera; dermal): > 81 µg/piece; LD50 (Apis mellifera; oral, unspecified): > 81 µg/piece; LD50 (Rattus norvegicus; F): > 5140 mg/kg-day; LD50 (Rattus norvegicus; oral, M): > 5000 mg/kg; NOAEL (Rattus norvegicus; subchronic, duration: 90 days, oral, hematological): 58 mg/kg-day
11 | Cc1nn(-c2cc(CC(Cl)C(=O)O)c(Cl)cc2F)c(=O)n1C(F)F (configuration not stated) [Carfentrazone] | > 99.2 | – | – | > 1000 | –
12 | Cc1nn(-c2cc(CC(C(=O)O)S(=O)(=O)O)c(Cl)cc2F)c(=O)n1C(F)F (stereo not drawn) [F8426-alpha-Sulfodeschloropropionic acid] | > 100 | – | 0.359 | > 100 | –
13 | O=C(O)c1cc(-n2nc(C(=O)O)n(C(F)F)c2=O)c(F)cc1Cl [F8426-dicarboxylic acid] | > 100 | 0.152 | 12.1 | – | –
